In patent US20220193066A1, “QUINOLINE DERIVATIVE USED FOR COMBINATION TREATMENT OF SMALL CELL LUNG CANCER” (CHIA TAI TIANQING PHARMACEUTICAL GROUP CO., LTD., priority 2019, published 2022):

What was measured:
Format in all cases: in vivo, human
[1] = system: small cell lung cancer (including ED-SCLC and LD-SCLC); test: Clinical trial of EP or EC regimen (etoposide+cisplatin/carboplatin)+anlotinib in small cell lung cancer patients (Example 1)
Excerpt: Patients who were pathologically diagnosed with small cell lung cancer (including ED-SCLC and LD-SCLC) with measurable lesions were divided into the following groups: two combination administration groups adopting a combination of either EP or EC regimen (etoposide+cisplatin/carboplatin)+anlotinib, and a control group adopting either EP or EC alone (etoposide+cisplatin/carboplatin). The administration regimens are detailed below.
In the combination administration group, patients received etoposide: 100 mg/m^2, i.v., for 120 min, administered at d1-3 of each 21-day dosing cycle; cisplatin: 75 mg/m^2, or carboplatin: AUC 5, i.v., for 120 min, administered at d1 of each 21-day dosing cycle; anlotinib, 12 mg/day, administered orally on an empty stomach in the morning at d1-14 of each 21-day dosing cycle. After 4-6 dosing cycles of combination treatment, anlotinib was used for maintenance treatment: 12 mg/day, administered orally on an empty stomach in the morning at d1-14 of each 21-day dosing cycle until progressive disease.
In the control group, patients received etoposide: 100 mg/m^2, i.v., for 120 min, administered at d1-3 of each 21-day dosing cycle; cisplatin: 75 mg/m^2 or carboplatin: AUC 5, i.v., for 120 min, administered at d1 of each 21-day dosing cycle.
The observation indexes are as follows: primary endpoint: progression-free survival (PFS); secondary endpoint: objective response rate (ORR), overall survival (OS), disease control rate (DCR), safety, and tolerability.
The clinical trial was implemented, and 31 patients were enrolled between February 2018 and October 2019.

[2] = system: small cell lung cancer; test: Clinical study of anlotinib in combination with irinotecan in relapsed small cell lung cancer (Example 2); conditions: anlotinib hydrochloride capsule 12 mg qd po d1-14 in combination with irinotecan 60-80 mg/m^2 i.v. d1 and d8, q3w
Excerpt: Patients who have been histopathologically and cytologically diagnosed with small cell lung cancer, have previously received 1 systemic chemotherapy adopting platinum-based chemotherapy regimens, and relapsed or failed after treatment, excluding patients with non-small cell lung cancer (including small cell and non-small cell mixed types), were divided into a combination administration group and a single-drug chemotherapy control group. The administration regimens are detailed below.
Combination administration group: anlotinib hydrochloride capsule 12 mg qd po d1-14 and irinotecan 60-80 mg/m^2 i.v. d1 and d8; q3w, no more than 6 chemotherapy dosing cycles.
Single-drug chemotherapy control group: irinotecan 60-80 mg/m^2 i.v. d1 and d8; q3w, no more than 6 chemotherapy dosing cycles.
Patients who achieved complete response (CR), partial response (PR), and stable disease (SD) continued to be administered until progressive disease (PD), intolerable toxicity, or patients who required withdrawal or achieved progressive disease (PD) were discontinued. The efficacy evaluation observation indexes include progression-free survival (PFS), overall survival (OS), objective response rate (ORR), disease control rate (DCR), duration of response (DOR), quality of life score and drug safety.

[3] = system: extensive-stage small cell lung cancer; test: Clinical study of anlotinib in combination with etoposide in extensive-stage small cell lung cancer after second-line failure (Example 3); conditions: anlotinib hydrochloride capsules 12 mg qd d1-14 in combination with etoposide soft capsules 100 mg qd d1-10, 21-day cycle
Description: Patients with extensive-stage small cell lung cancer after the pathological diagnosis of small cell lung cancer and failure with second-line chemotherapy (having received two previous chemotherapy regimens) were administered with anlotinib in combination with etoposide.
The administration regimens are detailed below.
Etoposide soft capsules: once daily, oral administration before breakfast, 100 mg (by weight of etoposide comprised therein) each time, administered at d1-10 of each 21-day dosing cycle.
Anlotinib hydrochloride capsules: once daily, oral administration before breakfast, 12 mg each time, administered at d1-14 of each 21-day dosing cycle.
The interval between the two drugs was more than half an hour. If there was a missed dose, the interval needed to be confirmed that it was not shorter than 12 hours before the next dose, otherwise no more doses would be taken. During the administration, dosage adjustments could be made according to the degree of drug-related toxicity and possible therapeutic benefit of the patient. The dose could be adjusted to the following 2 levels for anlotinib: 10 mg and 8 mg. If a reduction of more than 2 dose levels was required, the treatment was discontinued. The dose of etoposide could be reduced to 50 mg. […]

[4] = system: small cell lung cancer; test: Clinical study of anlotinib in combination with sintilimab in relapsed small cell lung cancer (Example 5); conditions: anlotinib hydrochloride capsules 12 mg qd d1-14 in combination with sintilimab 200 mg i.v. d1, 21-day cycle
Description: Patients who have been histologically or cytologically confirmed pathologically diagnosed with small cell lung cancer, have previously received at least one systemic chemotherapy regimen and have relapsed were administered with anlotinib in combination with sintilimab. The administration regimens are detailed below.
Anlotinib hydrochloride capsules: once daily, oral administration before breakfast, 12 mg each time, administered at d1-14 of each 21-day dosing cycle, consecutive 2-week treatment and 1-week interruption.
Sintilimab: 200 mg, i.v. infusion, administered d1 of each 21-day dosing cycle.
All patients continued for a treatment period of up to 12 months, or until progressive disease, development of an intolerable toxic response, withdrawal of informed consent, death, or other event requiring discontinuation of treatment specified in the protocol, whichever occurred first.
The efficacy evaluation observation indexes include progression-free survival (PFS), overall survival (OS), objective response rate (ORR=CR+PR), disease control rate (DCR=CR+PR+SD) and drug safety.

[5] = anlotinib 12 mg/day in combination with EP or EC regimen, 31 patients
[6] = anlotinib 12 mg/day in combination with EP or EC regimen, of 31 patients
[7] = combination of anlotinib and EP or EC regimen

What does the source list for `COc1cc2c(Oc3ccc4[nH]c(C)cc4c3F)ccnc2cc1OCC1(N)CC1` [anlotinib, 1-[[[4-(4-fluoro-2-methyl-1H-indol-5-yl)oxy-6-methoxyquinolin-7-yl]oxy]methyl]cyclopropylamine]?
disease control rate (DCR) [1, 5]: 100%; objective response rate (ORR) [1, 5]: 74.2%; patients with complete response (CR) [1, 6]: 3 patients; patients with partial response (PR) [1, 6]: 20 patients; patients with progressive disease (PD) [1, 6]: 0 patients; median PFS (progression-free survival) ([1]; anlotinib 12 mg/day po d1-14 q21d in combination with EP or EC regimen (etoposide + cisplatin/carboplatin), then anlotinib maintenance, 31 patients): 8.9 months; clinical efficacy [1, 7]: good; safety [1, 7]: good; clinical benefits [2]: had clinical benefits; clinical benefits [3]: had clinical benefits; clinical benefits [4]: had clinical benefits; progression-free survival to date [4]: up to 6 months
